Laboratory results: ChEMBL document CHEMBL2029314, “Discovery of HIV fusion inhibitors targeting gp41 using a comprehensive α-helix mimetic library” (Bioorg Med Chem Lett, 2012)

Assay: Displacement of C18-Aib-lucifer yellow from HIV1 envelope glycoprotein gp41 Fe(env2.0)3 by fluorescence assay
Design: species or system Human immunodeficiency virus 1
Details: not given
For `CSCC[C@H](N)C(=O)Nc1ccc(C(=O)N[C@@H](CCc2ccccc2)C(=O)O)cc1OCc1ccc(Cl)cc1`, the Ki was < 25 µM. For `N[C@@H](CCc1ccccc1)C(=O)Nc1ccc(C(=O)N[C@@H](CCc2ccccc2)C(=O)O)cc1OCc1ccc(Cl)cc1`, the Ki was < 25 µM. With `N[C@@H](Cc1ccc(O)cc1)C(=O)Nc1ccc(C(=O)N[C@@H](CCc2ccccc2)C(=O)O)cc1OCc1ccc(Cl)cc1` the Ki was < 25 µM. For `N[C@@H](Cc1c[nH]c2ccccc12)C(=O)Nc1ccc(C(=O)N[C@@H](CCc2ccccc2)C(=O)O)cc1OCc1ccc(Cl)cc1`, the Ki was < 25 µM. With `N[C@@H](CC(=O)O)C(=O)Nc1ccc(C(=O)N[C@@H](Cc2c[nH]c3ccccc23)C(=O)O)cc1OCCc1c[nH]c2ccccc12` the Ki was < 10 µM. In the case of `N[C@@H](CC(=O)O)C(=O)Nc1ccc(C(=O)N[C@H](CC(=O)O)Cc2c[nH]c3ccccc23)cc1OCCc1c[nH]c2ccccc12`, the Ki is reported as 0.6 µM. In the case of `CSCC[C@H](N)C(=O)Nc1ccc(C(=O)N[C@@H](Cc2c[nH]c3ccccc23)C(=O)O)cc1OCCc1c[nH]c2ccccc12`, the Ki is reported as < 10 µM. In the case of `N[C@@H](CC(=O)O)C(=O)Nc1ccc(C(=O)NCCc2c[nH]c3ccccc23)cc1OCCc1c[nH]c2ccccc12`, the Ki is reported as 18 µM. In the case of `CC[C@H](C)[C@H](N)C(=O)Nc1ccc(C(=O)N[C@@H](CCc2ccccc2)C(=O)O)cc1OCc1ccc(Cl)cc1`, the Ki is reported as < 25 µM. For `N[C@@H](Cc1ccc2ccccc2c1)C(=O)Nc1ccc(C(=O)N[C@@H](Cc2c[nH]c3ccccc23)C(=O)O)cc1OCCc1c[nH]c2ccccc12`, the Ki was < 10 µM. With `CSCC[C@H](N)C(=O)Nc1ccc(C(=O)N[C@@H](CCc2ccccc2)C(=O)O)cc1OCc1ccc2ccccc2c1` the Ki was < 10 µM. In the case of `CC(C)C[C@H](NC(=O)c1ccc(NC(=O)[C@@H](N)CO)c(OCCc2c[nH]c3ccccc23)c1)C(=O)O`, the Ki is reported as < 10 µM. For `CC(C)C[C@H](NC(=O)c1ccc(NC(=O)[C@@H](N)CC(=O)O)c(OCCc2c[nH]c3ccccc23)c1)C(=O)O`, the Ki was < 10 µM. In the case of `CC(C)C[C@H](NC(=O)c1ccc(NC(=O)[C@@H](N)Cc2ccc3ccccc3c2)c(OCCc2c[nH]c3ccccc23)c1)C(=O)O`, the Ki is reported as < 10 µM. With `CC(C)C[C@H](NC(=O)c1ccc(NC(=O)[C@@H](N)CC(N)=O)c(OCCc2c[nH]c3ccccc23)c1)C(=O)O` the Ki was < 10 µM. With `CC(C)C[C@H](N)C(=O)Nc1ccc(C(=O)N[C@@H](CCc2ccccc2)C(=O)O)cc1OCc1ccc2ccccc2c1` the Ki was < 10 µM. For `CC[C@H](C)[C@H](N)C(=O)Nc1ccc(C(=O)N[C@@H](CCc2ccccc2)C(=O)O)cc1OCc1ccc2ccccc2c1`, the Ki was < 10 µM. For `N[C@@H](CC(=O)O)C(=O)Nc1ccc(C(=O)N[C@@H](CCc2ccccc2)C(=O)O)cc1OCc1ccc2ccccc2c1`, the Ki was < 10 µM. In the case of `N[C@@H](Cc1ccc(O)cc1)C(=O)Nc1ccc(C(=O)N[C@@H](CCc2ccccc2)C(=O)O)cc1OCc1ccc2ccccc2c1`, the Ki is reported as < 10 µM. With `N[C@@H](Cc1c[nH]c2ccccc12)C(=O)Nc1ccc(C(=O)N[C@@H](CCc2ccccc2)C(=O)O)cc1OCc1ccc2ccccc2c1` the Ki was < 10 µM. With `N[C@@H](CCc1ccccc1)C(=O)Nc1ccc(C(=O)N[C@@H](CCc2ccccc2)C(=O)O)cc1OCc1ccc2ccccc2c1` the Ki was < 10 µM. With `C[C@H](N)C(=O)Nc1ccc(C(=O)N[C@@H](Cc2c[nH]c3ccccc23)C(=O)O)cc1OCCc1c[nH]c2ccccc12` the Ki was < 10 µM. For `CC[C@H](N)C(=O)Nc1ccc(C(=O)N[C@@H](Cc2c[nH]c3ccccc23)C(=O)O)cc1OCCc1c[nH]c2ccccc12`, the Ki was < 10 µM. For `CC(C)[C@H](N)C(=O)Nc1ccc(C(=O)N[C@@H](Cc2c[nH]c3ccccc23)C(=O)O)cc1OCCc1c[nH]c2ccccc12`, the Ki was < 10 µM. For `CC(C)C[C@H](N)C(=O)Nc1ccc(C(=O)N[C@@H](Cc2c[nH]c3ccccc23)C(=O)O)cc1OCCc1c[nH]c2ccccc12`, the Ki was < 10 µM. With `CC[C@H](C)[C@H](N)C(=O)Nc1ccc(C(=O)N[C@@H](Cc2c[nH]c3ccccc23)C(=O)O)cc1OCCc1c[nH]c2ccccc12` the Ki was < 10 µM. With `N[C@@H](CO)C(=O)Nc1ccc(C(=O)N[C@@H](Cc2c[nH]c3ccccc23)C(=O)O)cc1OCCc1c[nH]c2ccccc12` the Ki was < 10 µM. For `C[C@@H](O)[C@H](N)C(=O)Nc1ccc(C(=O)N[C@@H](Cc2c[nH]c3ccccc23)C(=O)O)cc1OCCc1c[nH]c2ccccc12`, the Ki was < 10 µM. For `N[C@@H](Cc1ccccc1)C(=O)Nc1ccc(C(=O)N[C@@H](Cc2c[nH]c3ccccc23)C(=O)O)cc1OCCc1c[nH]c2ccccc12`, the Ki was < 10 µM. With `N[C@@H](Cc1ccc(O)cc1)C(=O)Nc1ccc(C(=O)N[C@@H](Cc2c[nH]c3ccccc23)C(=O)O)cc1OCCc1c[nH]c2ccccc12` the Ki was < 10 µM. In the case of `COc1ccc(C[C@H](N)C(=O)Nc2ccc(C(=O)N[C@@H](Cc3c[nH]c4ccccc34)C(=O)O)cc2OCCc2c[nH]c3ccccc23)cc1`, the Ki is reported as 0.7 µM. In the case of `N[C@@H](Cc1c[nH]c2ccccc12)C(=O)Nc1ccc(C(=O)N[C@@H](Cc2c[nH]c3ccccc23)C(=O)O)cc1OCCc1c[nH]c2ccccc12`, the Ki is reported as < 10 µM. Work on `NC(=O)C[C@H](N)C(=O)Nc1ccc(C(=O)N[C@@H](Cc2c[nH]c3ccccc23)C(=O)O)cc1OCCc1c[nH]c2ccccc12` yielded a Ki of 0.8 µM. `COC(=O)[C@H](Cc1c[nH]c2ccccc12)NC(=O)c1ccc(NC(=O)[C@@H](N)CC(=O)O)c(OCCc2c[nH]c3ccccc23)c1` showed a Ki of 21 µM. `O=C(O)CCC(=O)Nc1ccc(C(=O)N[C@@H](Cc2c[nH]c3ccccc23)C(=O)O)cc1OCCc1c[nH]c2ccccc12` showed a Ki of 0.6 µM. Work on `COc1ccc(C[C@H](N)C(=O)Nc2ccc(C(=O)N[C@H](CC(=O)O)Cc3c[nH]c4ccccc34)cc2OCCc2c[nH]c3ccccc23)cc1` yielded a Ki of 50 µM. In the case of `COc1ccc(C[C@H](N)C(=O)Nc2ccc(C(=O)N[C@H](CCC(=O)O)Cc3c[nH]c4ccccc34)cc2OCCc2c[nH]c3ccccc23)cc1`, the Ki is reported as 100 µM.

Assay: Inhibition of HIV1 envelope glycoprotein 41-mediated membrane fusion between virus-transfected human HL2/3 cells and human TZM-bl cells after 6 hrs by luciferase reporter assay
Type: cell-based
Details: Human immunodeficiency virus 1, TZM-bl
With `CC(C)C[C@H](NC(=O)c1ccc(NC(=O)[C@@H](N)Cc2c[nH]c3ccccc23)c(OCCc2c[nH]c3ccccc23)c1)C(=O)O` the IC50 was 5 µM. `COc1ccc(C[C@H](N)C(=O)Nc2ccc(C(=O)N[C@@H](Cc3c[nH]c4ccccc34)C(=O)O)cc2OCCc2c[nH]c3ccccc23)cc1` gave an IC50 of 8 µM. `NC(=O)C[C@H](N)C(=O)Nc1ccc(C(=O)N[C@@H](Cc2c[nH]c3ccccc23)C(=O)O)cc1OCCc1c[nH]c2ccccc12` gave an IC50 of 6 µM. In the case of `CC(C)[C@H](NC(=O)c1ccc(N)c(OCc2ccc(O)cc2)c1)C(=O)O`, the IC50 is reported as < 30 µM. With `CC[C@H](NC(=O)c1ccc(N)c(OCc2ccc(O)cc2)c1)C(=O)O` the IC50 was < 30 µM. In the case of `CSCC[C@H](NC(=O)c1ccc(N)c(OCc2ccc(O)cc2)c1)C(=O)O`, the IC50 is reported as < 30 µM. In the case of `Nc1ccc(C(=O)N[C@@H](CO)C(=O)O)cc1OCc1ccc(O)cc1`, the IC50 is reported as < 30 µM. In the case of `Nc1ccc(C(=O)N[C@@H](Cc2ccc(O)cc2)C(=O)O)cc1OCc1ccc(O)cc1`, the IC50 is reported as < 30 µM. In the case of `NC(=O)C[C@H](NC(=O)c1ccc(N)c(OCc2ccc(O)cc2)c1)C(=O)O`, the IC50 is reported as < 30 µM. For `Nc1ccc(C(=O)N[C@@H](Cc2ccc3ccccc3c2)C(=O)O)cc1OCc1ccc(O)cc1`, the IC50 was < 30 µM. In the case of `CC[C@H](C)[C@H](NC(=O)c1ccc(N)c(OCCc2c[nH]c3ccccc23)c1)C(=O)O`, the IC50 is reported as < 30 µM. For `CC(C)C[C@H](NC(=O)c1ccc(N)c(OCCc2c[nH]c3ccccc23)c1)C(=O)O`, the IC50 was < 30 µM. With `Nc1ccc(C(=O)N[C@@H](CCc2ccccc2)C(=O)O)cc1OCCc1c[nH]c2ccccc12` the IC50 was < 30 µM. For `Nc1ccc(C(=O)N[C@@H](Cc2ccc(Cl)cc2)C(=O)O)cc1OCCc1c[nH]c2ccccc12`, the IC50 was < 30 µM. With `Nc1ccc(C(=O)N[C@@H](Cc2c[nH]c3ccccc23)C(=O)O)cc1OCCc1c[nH]c2ccccc12` the IC50 was < 30 µM. For `CC[C@H](C)[C@H](NC(=O)c1ccc(N)c(OCc2ccc(Cl)cc2)c1)C(=O)O`, the IC50 was < 30 µM. For `Nc1ccc(C(=O)N[C@@H](Cc2ccc3ccccc3c2)C(=O)O)cc1OCc1ccc(Cl)cc1`, the IC50 was < 30 µM. For `CC[C@H](C)[C@H](NC(=O)c1ccc(N)c(OCc2ccc3ccccc3c2)c1)C(=O)O`, the IC50 was < 30 µM. In the case of `CC(C)C[C@H](NC(=O)c1ccc(N)c(OCc2ccc3ccccc3c2)c1)C(=O)O`, the IC50 is reported as < 30 µM. In the case of `Nc1ccc(C(=O)N[C@@H](CCc2ccccc2)C(=O)O)cc1OCc1ccc2ccccc2c1`, the IC50 is reported as < 30 µM. In the case of `Nc1ccc(C(=O)N[C@@H](CC(=O)O)C(=O)O)cc1OCc1ccc2ccccc2c1`, the IC50 is reported as < 30 µM. With `Nc1ccc(C(=O)N[C@@H](Cc2ccccc2)C(=O)O)cc1OCc1ccc2ccccc2c1` the IC50 was < 30 µM. In the case of `Nc1ccc(C(=O)N[C@@H](Cc2ccc(O)cc2)C(=O)O)cc1OCc1ccc2ccccc2c1`, the IC50 is reported as < 30 µM. For `COc1ccc(C[C@H](NC(=O)c2ccc(N)c(OCc3ccc4ccccc4c3)c2)C(=O)O)cc1`, the IC50 was < 30 µM.
